Experimental data as given in patent US20230202997A1, “CHROMANOL, QUINONE OR HYDROQUINONE COMPOUNDS FOR TREATMENT OF SEPSIS” (Sulfateq B.V., priority 2020, published 2023).

Legend:
TNFα mRNA expression = experiment: Inhibition of LPS-induced TNFα mRNA expression in HUVEC; type: cell-based, Human; details: 10 μM for 30 min, then LPS 24 hours
Protocol: (§1) Human Umbilical Cord Endothelial Cells (HUVEC, Lonza CC-2519) were maintained on 1% gelatin-coated culture flasks in RPMI1640 medium containing 20% fetal bovine serum, 2 mM Glutamine (Sigma-Aldrich), 1% Penicillin-Streptomycin solution (Sigma-Aldrich) and 50 μg/ml Bovine Pituitary Extract (Invitrogen). HUVEC were passaged by trypsinization when the cultures reach a confluency of 70%. For all experiments, HUVEC were seeded at 0.6·10^5 cells/cm^2 and allowed to adhere for 24 hours.
HUVEC and NRK52E cells were pre-incubated with SUL compounds (10 μM) for 30 min and subsequently exposed to LPS for 24 hours under standard culture conditions. Cells were lysed in triZOL reagens (Invitrogen) and total RNA isolated according to manufacturers' instruction. 1 μg total RNA per sample was reverse transcribed using the FirstAid Reverse Transcription Kit (ThermoFisher). Copy-DNA equivalents of 5 ng total RNA were amplified on a ViiA7 Real-time PCR system (ThermoFisher, Waltham, Mass.) using iTaq Universal SYBR Green Supermix (Bio-Rad, Hercules, Calif.) and primers specific for tumor necrosis factor alpha, interleukin 1 beta, interleukin-6 and beta actin as loading control. Amplification was performed for 40 cycles of 95° C. for 30 s, 60° C. for 1 min. Relative mRNA expression was calculated as 2^−(Cq^gene^−Cq^reference^) and normalized to unstimulated control cells (100% inhibition) and vehicle-treated and LPS exposed cells (0% inhibition). The following primers were used: […]

[1] = test system: mitochondrial oxidative stress in HUVEC; experiment: LPS-induced mitochondrial superoxide in HUVEC (MitoSox); type: cell-based, Human; details: 10 μM for 30 min, LPS 100 ng/ml 24 hours
Protocol: as §1
(§2) The production of cellular and mitochondrial oxidative stress was measured using fluorescent probes for cellular and mitochondrial superoxide, i.e. dihydroethidium (DHE) and MitoSox (ThermoFisher), respectively. HUVEC were incubated with BN-80933, SUL-138 or SUL-150 (all 10 μM) for 30 min. Next, HUVEC were exposed to LPS (100 ng/ml) for an additional 24 hours. In the final hour of incubation, 2.5 μM of DHE or MitoSox was applied to each sample. HUVEC were washed in PBS and fixed in 4% paraformaldehyde at room temperature for 15 min. Nuclear staining was performed by 5 μM […] (DAPI) and fluorescence intensity of the samples was recorded in a CLARIOStar Plus plate reader (BMG Labtech) equipped with the appropriate filter sets. Fluorescence recordings for DHE and MitoSox were corrected for DAPI fluorescence. All experiments were performed in quadruplicate.

[2] = test system: NO production in RAW264.7 macrophages; experiment: Macrophage NO production (nitrate in conditioned medium), basal and after LPS; type: cell-based, Mouse
Protocol: Mouse macrophage RAW264.7 cells (ATCC #TIB-71) were maintained in DMEM medium containing 10% fetal bovine serum, and 1% Penicillin-Streptomycin solution (Sigma-Aldrich). […] For all experiments, RAW264.7 cells were seeded at 0.5·10^5 cells/cm^2 and allowed to adhere for 24 hours. Cellular production of NO was approximated by measuring nitrate concentrations in culture media using the Measure-IT™ High-Sensitivity Nitrite Assay Kit (#M36051, ThermoFisher) according to manufacturer's instructions. […] Therefore, nitrate concentrations in conditioned media are a good approximate to assess cellular NO production. 50 μl conditioned medium derived from a single 96-wells plate well was used per assay and normalized against protein concentration. All experiments were performed in quadruplicate. LPS induces macrophage NO production by activating iNOS. RAW264.7 macrophages were pre-treated with vehicle (DMSO), BN-80933, SUL-138, or SUL-150 or (all 10 μM) prior to endotoxin (LPS 100 ng/ml) exposure for 24 hours. The nitrate levels in the conditioned medium from LPS exposed RAW264.7 macrophages averaged at 83 pmol/mg protein (˜16-fold increase versus non-exposed RAW264.7 cells, p=0.001).

IL-1β mRNA expression = experiment: Endothelial inflammatory activation after endotoxin, IL-1β mRNA (Example 5); type: cell-based, Human; details: HUVEC; 10 μM for 30 min
Protocol: as §1
HUVEC cells were lysed in triZOL reagens (Invitrogen) and total RNA isolated according to manufacturers' instruction. 1 μg total RNA per sample was reverse transcribed using the FirstAid Reverse Transcription Kit (ThermoFisher). Copy-DNA equivalents of 5 ng total RNA were amplified on a ViiA7 Real-time PCR system (ThermoFisher, Waltham, Mass.) using iTaq Universal SYBR Green Supermix (Bio-Rad, Hercules, Calif.) and primers specific for tumor necrosis factor alpha (TNFα; sense 5′-[…]-3′, antisense 5′-[…]-3′), interleukin 1 beta (IL-1β; sense 5′-[…]-3′, antisense 5′-[…]-3′), interleukin-6 (IL-6; sense 5′-[…]-3′, antisense 5′-[…]-3′) and beta actin (ACTB; sense 5′-[…]-3′, antisense 5′-[…]-3′) as loading control. Amplification was performed for 40 cycles of 95° C. for 30 s, 60° C. for 1 min. Relative mRNA expression was calculated according to the δδCt-method.

[3] = test system: cytoplasmic oxidative stress in HUVEC; experiment: LPS-induced cellular superoxide in HUVEC (DHE); type: cell-based, Human; details: 10 μM for 30 min, LPS 100 ng/ml 24 hours
Protocol: as §1, §2

Cc1c(C)c2c(c(C)c1O)CC[C@@](C)(C(=O)N1CCN(CCO)CC1)O2 [SUL-138, (S)-(6-hydroxy-2,5,7,8-tetramethylchroman-2-yl)(4-(2-hydroxyethyl)piperazin-1-yl)methanone]
inhibition of LPS-induced mRNA expression of TNFα (TNFα mRNA expression): 81.4 ± 4.5 %
LPS-induced mitochondrial oxidative stress (MitoSox) [1]: precluded the LPS-induced increase in mitochondrial oxidative stress
LPS-induced increase in extracellular nitrate level ([2]; 10 μM pre-treatment, LPS 100 ng/ml for 24 hours): Neither SUL-138 nor SUL-150 strongly suppressed the LPS-induced increase in nitrate production
basal production of extracellular nitrate ([2]; no LPS, 10 μM): Neither BN-80933, SUL-138, nor SUL-150 affected the basal production of extracellular nitrate
LPS-induced mRNA expression of IL-1β (IL-1β mRNA expression): precluded the LPS-induced increase in IL-1β and IL-6
LPS-induced cytoplasmic oxidative stress (DHE) [3]: mitigates the induction of cytoplasmic oxidative stress
